According to US20110100079A1, “METHOD FOR IMPARTING STRESS TOLERANCE TO PLANT” (priority 2007, published 2011):

Experiments:
Type in all cases: in vivo
“Momotaro” tomato [1] = test: Example 6 salt stress test (tomato), soil culture; settings: 23° C., 100 ppm, 2 weeks; for Fresh weight, relative value (untreated plot = 100), Test 1 / Fresh weight, relative value (untreated plot = 100), Test 4 / Fresh weight, relative value (untreated plot = 100), Test 2 / Fresh weight, relative value (untreated plot = 100), Test 3: soil culture; for Fresh weight, relative value (untreated plot = 100), Test 1: EC 1.3 mS/cm; for Fresh weight, relative value (untreated plot = 100), Test 1 / Fresh weight, relative value (untreated plot = 100), Test 2 / Fresh weight, relative value (untreated plot = 100), Test 3 / Fresh weight, relative value (untreated plot = 100), Comparison 1: pF 1.7, two-leaf stage; for Fresh weight, relative value (untreated plot = 100), Test 4 / Fresh weight, relative value (untreated plot = 100), Test 2: EC 2 mS/cm; for Fresh weight, relative value (untreated plot = 100), Test 4: pF 1.7, five-leaf stage; for Fresh weight, relative value (untreated plot = 100), Test 3: EC 3 mS/cm; for Fresh weight, relative value (untreated plot = 100), Comparison 1: stress-free: soil culture, EC 1 mS/cm
Description: (1) A. soil culture (a) Comparative example conditions (stress-free optimum growth conditions) Cultivation temperature: 23° C., EC: 1.0 mS/cm (cultivation with Kureha gardening soil), pF value: 1.7 (capillaries in a saturated state) (b) Example conditions (salt stress conditions) Cultivation temperature: 23° C., EC: 1.3, 2.0, 3.0 mS/cm (cultivation with Kureha gardening soil), pF value: 1.7 (capillaries in a saturated state)
(§1) (a) Comparative example conditions (stress-free optimum growth conditions) Cultivation temperature: 23° C., EC: 1.3 mS/cm (Otsuka ½A formulation) (b) Example conditions (salt stress conditions) Cultivation temperature: 23° C., EC: 2.7, 3.9, 4.8 mS/cm (cultivation with Kureha gardening soil) (2) Illuminance: 5000 Lux (fluorescent light), light/dark cycle: 16 hours/8 hours (3) Employed soil: Kureha gardening soil manufactured by Kureha Corporation (fertilizer components: N:P:K=0.4:1.9:0.6 g/kg soil) (4) Employed solution culture medium: Otsuka ½A formulation: a mixed solution of Otsuka House No. 1 (N:P:K=10:8:27) 7.5 g/10 L and Otsuka House No. 2 (N:P:K:Ca=10:0:0:23) 5 g/10 L, total nitrogen: 130 ppm, phosphoric acid: 60 ppm, potassium: 203 ppm) (5) Cultivation period: 2 weeks (6) Plant preparation: A 50-cell tray was filled with Kureha gardening soil manufactured by Kureha Corporation (fertilizer components: N:P:K=0.4:1.9:0.6 g/kg soil), and seeds of a “Momotaro” tomato or tubers of a “Danshaku” potato were sowed, thinly covered with Kureha gardening soil, and sufficiently watered to allow the seeds or the tubers to sprout. When the leaves in the 2-leaf stage or the 5-leaf stage fully unfolded, the soil on the tomato roots or the potato roots was carefully washed away with running water, and a test was performed. (7) Test chemicals: POE (20) sorbitan monolauric acid ester: Reodol TW-L120 (Kao Corporation) POE (20) sorbitan monopalmitic acid ester: Reodol TW-P120 (Kao Corporation) POE (20) sorbitan monostearic acid ester: Reodol TW-S120 (Kao Corporation) POE (20) sorbitan monooleic acid ester: Reodol TW-O120 (Kao Corporation) Sorbitan monooleic acid ester: Emasol 0-10(F) (Kao Corporation) POE (6) sorbitan monooleic acid ester: Reodol TW-O106 (Kao Corporation) Alkyl (number of carbon atoms: 10) polyglucoside: AG-10LK (Kao Corporation) Alkyl (number of carbon atoms: 12 to 14) polyglucoside: AG-124 (Kao Corporation) Sucrose fatty acid ester (number of carbon atoms: C18, HLB: 5): S-570 (Mitsubishi-Kagaku Foods Corporation) Sucrose fatty acid ester (number of carbon atoms: C18, HLB: 9): S-970 (Mitsubishi-Kagaku Foods Corporation) Sucrose fatty acid ester (number of carbon atoms: C18, HLB: 11): S-1170 (Mitsubishi-Kagaku Foods Corporation) Sucrose fatty acid ester (number of carbon atoms: C18, HLB: 15): 5-1570 (Mitsubishi-Kagaku Foods Corporation) Sucrose fatty acid ester (number of carbon atoms: C16, HLB: 15): P-1570 (Mitsubishi-Kagaku Foods Corporation) Sucrose fatty acid ester (number of carbon atoms: C18:1, HLB: 15): O-1570 (Mitsubishi-Kagaku Foods Corporation) (8) Amount of treatment solution applied: 10 ml/specimen for leaf spraying, 250 ml/specimen for hydroponic culture (treatment of underground portion) (9) 50 ml/specimen for soil culture (treatment of underground portion)
The environmental conditions in a climatic chamber were controlled so as to have a temperature of 23° C., an illuminance by a fluorescent light of 5000 Lux, and a daily light-dark cycle of a 16-hour light period and an 8-hour dark period. Tomatoes as prepared above were transplanted in size-3 (9 cm) pots. During the test period, the EC value was controlled by adding a suitable amount of a 10% NaCl solution once a day so as to attain a specific salt stress value. A treatment solution containing a compound of Table 1 in a specific concentration (the remainder was water) was prepared and sprayed onto the leaves or applied to the underground portions. […]

“Momotaro” tomato [2] = test: Example 6 salt stress test (tomato), hydroponic culture; settings: 23° C., 100 ppm, 2 weeks; for Fresh weight, relative value (untreated plot = 100), Test 5 / Fresh weight, relative value (untreated plot = 100), Test 8 / Fresh weight, relative value (untreated plot = 100), Test 6 / Fresh weight, relative value (untreated plot = 100), Test 7: hydroponic culture; for Fresh weight, relative value (untreated plot = 100), Test 5: EC 2.7 mS/cm; for Fresh weight, relative value (untreated plot = 100), Test 5 / Fresh weight, relative value (untreated plot = 100), Test 6 / Fresh weight, relative value (untreated plot = 100), Test 7 / Fresh weight, relative value (untreated plot = 100), Comparison 2: two-leaf stage; for Fresh weight, relative value (untreated plot = 100), Test 8 / Fresh weight, relative value (untreated plot = 100), Test 6: EC 3.9 mS/cm; for Fresh weight, relative value (untreated plot = 100), Test 8: five-leaf stage; for Fresh weight, relative value (untreated plot = 100), Test 7: EC 4.8 mS/cm; for Fresh weight, relative value (untreated plot = 100), Comparison 2: stress-free: hydroponic culture, EC 1.3 mS/cm
Description: as §1
The environmental conditions in a climatic chamber were controlled so as to have a temperature of 23° C., an illuminance by a fluorescent light of 5000 Lux, and a daily light-dark cycle of a 16-hour light period and an 8-hour dark period. Tomatoes as prepared above were planted in 250 ml polyethylene bottles each filled with a solution culture medium having a different EC value. Different EC values were achieved by taking a ½ Otsuka A formulation having an EC value of 1.3 as a standard and suitably increasing the fertilizer concentration through proportional counting. A treatment solution containing a compound of Table 1 in a specific concentration (the remainder was water) was prepared and sprayed onto the leaves or applied to the underground portion. In each test plot, 10 specimens were prepared for replication, and the average of the fresh weight of each specimen 2 weeks after the beginning of the test was calculated and expressed as a relative value where “100” indicates a result identical to that of the untreated plot of a given EC condition. […]

tomato = test: Example 7 drying stress test (tomato), soil culture; settings: 23° C., 100 ppm, 2 weeks; for Fresh weight, relative value (untreated plot = 100), Comparison 1: stress-free: tomato soil culture, EC 1, pF 1.7, two-leaf stage; for Fresh weight, relative value (untreated plot = 100), Test 1 / Fresh weight, relative value (untreated plot = 100), Test 4 / Fresh weight, relative value (untreated plot = 100), Test 2 / Fresh weight, relative value (untreated plot = 100), Test 3: tomato soil culture; for Fresh weight, relative value (untreated plot = 100), Test 1: EC 1, pF 2.8, two-leaf stage; for Fresh weight, relative value (untreated plot = 100), Test 4: EC 1, pF 3.5, five-leaf stage; for Fresh weight, relative value (untreated plot = 100), Test 2: EC 1, pF 3.5, two-leaf stage; for Fresh weight, relative value (untreated plot = 100), Test 3: EC 1, pF 4.1, two-leaf stage
Description: The environmental conditions in a climatic chamber were controlled so as to have a temperature of 23° C., an illuminance by a fluorescent light of 5000 Lux, and a daily light-dark cycle of a 16-hour light period and an 8-hour dark period. Tomatoes as prepared above were transplanted in size-3 (9 cm) pots. During the test period, the pF value was controlled by adding a suitable amount of tap water once a day so as to attain a specific drying stress value. A treatment solution containing a compound of Table 1 in a specific concentration (the remainder was water) was prepared and sprayed onto the leaves or applied to the underground portions. […] A comparative example was constructed to reflect the drying stress-free optimum cultivation conditions to investigate the plant energizing ability. […] Moreover, when the products of the present invention and the comparative products were compared, the stress tolerance imparting ability of the products of the present invention was higher in respective drying stress conditions.

Row | Molecule | Fresh weight, relative value (untreated plot = 100), Test 1 (“Momotaro” tomato [1]; leaf) | Fresh weight, relative value (untreated plot = 100), Test 4 (“Momotaro” tomato [1]; leaf) | Fresh weight, relative value (untreated plot = 100), Test 2 (“Momotaro” tomato [1]; leaf) | Fresh weight, relative value (untreated plot = 100), Test 3 (“Momotaro” tomato [1]; leaf) | Fresh weight, relative value (untreated plot = 100), Test 5 (“Momotaro” tomato [2]; leaf) | Fresh weight, relative value (untreated plot = 100), Test 8 (“Momotaro” tomato [2]; leaf) | Fresh weight, relative value (untreated plot = 100), Test 6 (“Momotaro” tomato [2]; leaf) | Fresh weight, relative value (untreated plot = 100), Test 7 (“Momotaro” tomato [2]; leaf) | Fresh weight, relative value (untreated plot = 100), Comparison 2 (“Momotaro” tomato [2]; leaf) | Fresh weight, relative value (untreated plot = 100), Comparison 1 (tomato; leaf) | Fresh weight, relative value (untreated plot = 100), Test 1 (tomato; leaf) | Fresh weight, relative value (untreated plot = 100), Test 4 (tomato; leaf) | Fresh weight, relative value (untreated plot = 100), Test 2 (tomato; leaf) | Fresh weight, relative value (untreated plot = 100), Test 3 (tomato; leaf) | other results
1 | POE (20) sorbitan monooleic acid ester [Product of present invention 1] | – | – | – | – | – | – | – | – | – | – | – | – | – | – | Fresh weight, relative value (untreated plot = 100), Test 1 (“Momotaro” tomato [1]; underground portion): 142; Fresh weight, relative value (untreated plot = 100), Test 4 (“Momotaro” tomato [1]; underground portion): 156; Fresh weight, relative value (untreated plot = 100), Test 2 (“Momotaro” tomato [1]; underground portion): 185; Fresh weight, relative value (untreated plot = 100), Test 3 (“Momotaro” tomato [1]; underground portion): 140; Fresh weight, relative value (untreated plot = 100), Comparison 1 (“Momotaro” tomato [1]; underground portion): 103; Fresh weight, relative value (untreated plot = 100), Test 5 (“Momotaro” tomato [2]; underground portion): 145; Fresh weight, relative value (untreated plot = 100), Test 8 (“Momotaro” tomato [2]; underground portion): 160; Fresh weight, relative value (untreated plot = 100), Test 6 (“Momotaro” tomato [2]; underground portion): 190; Fresh weight, relative value (untreated plot = 100), Test 7 (“Momotaro” tomato [2]; underground portion): 145; Fresh weight, relative value (untreated plot = 100), Comparison 2 (“Momotaro” tomato [2]; underground portion): 104; Fresh weight, relative value (untreated plot = 100), Comparison 1 (tomato; underground portion): 103; Fresh weight, relative value (untreated plot = 100), Test 1 (tomato; underground portion): 134; Fresh weight, relative value (untreated plot = 100), Test 4 (tomato; underground portion): 160; Fresh weight, relative value (untreated plot = 100), Test 2 (tomato; underground portion): 188; Fresh weight, relative value (untreated plot = 100), Test 3 (tomato; underground portion): 145
2 | C[N+](C)(C)CC(=O)[O-] [Comparative product 3, Glycine betaine, reference compound] | 103 | 101 | 103 | 103 | 103 | 101 | 103 | 102 | 102 | 102 | 102 | 101 | 103 | 103 | Fresh weight, relative value (untreated plot = 100), Comparison 1 (“Momotaro” tomato [1]; leaf): 102
3 | Sucrose fatty acid ester (C18, HLB = 15) [Product of present invention 20] | 120 | 129 | 134 | 119 | 121 | 133 | 138 | 125 | 103 | 103 | 119 | 136 | 139 | 124 | –
4 | OC[C@H]1O[C@H](OC[C@H]2O[C@H](O[C@]3(CO)O[C@H](CO)[C@@H](O)[C@@H]3O)[C@H](O)[C@@H](O)[C@@H]2O)[C@H](O)[C@@H](O)[C@H]1O [Comparative product 4, Raffinose, reference compound] | – | – | – | – | 103 | 102 | 103 | 103 | 102 | 102 | 103 | 101 | 103 | 103 | –
